Among the data in PubChem BioAssay (NCI) are GI50 and TGI values, retold here.

The structures appear in SMILES notation.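 Five concentrations, 48 hours, 96-well plates. The concentration for 50% growth inhibition is given as GI50. TGI: concentration producing complete growth inhibition.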

The test deals with MDA-MB-468 breast. The test can be described thus: NCI anticancer screen, dose series, 48 h.
With `CN1C(=O)CNC(=O)[C@H](NC(=O)c2nc3ccccc3cc2O)CSSC[C@H]1C(=O)NCCc1nc2ccccc2cc1O`, the GI50 was 1.32 µM and the TGI worked out at 11 µM.

With `COC(CCP(=O)(c1ccccc1)c1ccccc1)(C(=O)c1ccccc1)c1ccccc1` (stereo unspecified), the GI50 is 2.05 µM and the TGI was 11.7 µM.

As for `COc1cnc2c(c1)C(=O)c1c-2n(CCCn2ccnc2)c(=O)c2cc(Cl)ccc12`, the GI50 is 0.0252 µM and the TGI turned out to be 0.0855 µM.

Take `ClCCN(CCCl)c1ccc(-n2cnc3c(Cl)ncnc32)cc1`: the GI50 is 1.97 µM and the TGI was determined as 4.18 µM.

On to `Brc1ccc([I+]c2ccc(Br)cc2)cc1`, for which the GI50 is 0.541 µM and the TGI turned out to be 3.52 µM.

Regarding `COCCOC(=O)C1=C(C)NC2=C(C(=O)CC(c3ccccc3OC)C2)C1c1cccc(O)c1` (stereo unspecified), the GI50 was 3.92 µM and the TGI is 21.9 µM.

Turning to `O=C1OC(c2ccc(O)c(Cl)c2)(c2ccc(O)c(Cl)c2)c2ccc(Br)c3cccc1c23` (tested in a mixture with another compound), the GI50 is 14.6 µM and the TGI was determined as 34.1 µM.

Turning to `Oc1ccc(CSc2nnc(-c3ccccc3)o2)c2cccnc12`, the GI50 is 2.21 µM and the TGI was greater than 100 µM.

As to `COc1ccc(O)c(C(=O)c2ccc(C(=O)O[C@@H]3CCCNC[C@H]3NC(=O)c3ccncc3)cc2)c1F`, the GI50 is 0.511 µM and the TGI was greater than 23.7 µM.

Regarding `C#C[C@]1(O)CC[C@H]2[C@@H]3CC=C4c5sc(-c6ccc(F)cn6)nc5CC[C@]4(C)[C@H]3CC[C@@]21C`, the GI50 is 2.99 µM and the TGI was 13.7 µM.

On to `CCN(CC)c1ccc2c(c1)Oc1nc(N)c(C#N)c(N)c1C2Sc1ccc(SC)cc1` (stereo unspecified), for which the GI50 is 1.94 µM and the TGI is 3.64 µM.

Take `Oc1ccccc1-c1nnc(SCc2ccc(O)c3ncccc23)n1-c1ccccc1`: the GI50 is 0.349 µM and the TGI was found to be 9.29 µM.

Consider `O=C(COc1cccc(/C=C2\COc3ccccc3C2=O)c1)Nc1nccs1`, for which the GI50 was 1.91 µM and the TGI came to 3.54 µM.

For the compound `CCCCC(=O)N/N=C/c1cc(I)cc(I)c1O`, the GI50 is 2.85 µM and the TGI was 18.4 µM.

Turning to `CC(C)(C)c1ccc([I+]c2ccc(C(C)(C)C)cc2)cc1`, the GI50 is 0.4 µM and the TGI was 2.28 µM.

As for `C#C[C@]1(O)CC[C@H]2[C@@H]3CC=C4c5sc(N=C(N)N)nc5CC[C@]4(C)[C@H]3CC[C@@]21C`, the GI50 was 0.741 µM and the TGI was determined as 2.2 µM.

Regarding `COc1cccc(/C=N\Nc2ccc([N+](=O)[O-])cn2)c1O`, the GI50 was 2.27 µM and the TGI worked out at 6.64 µM.

As for `COc1ccc2c(c1)c(C1(c3cn(C)c4ccc(OC)cc34)C(=O)Nc3ccc(F)cc31)cn2C`, the GI50 is 3.4 µM and the TGI is 41.4 µM.

With `Nc1cc(-c2ccccc2)ccc1O`, the GI50 was 42.3 µM and the TGI is greater than 100 µM.

For `CCCN(CCC)c1ccc(CO)c(C)c1`, the GI50 was 0.962 µM and the TGI was found to be 4.32 µM.

For the compound `COc1ccc(-c2n[nH]nc2-c2csc3ccccc23)cc1OC`, the GI50 is 0.631 µM and the TGI was determined as 10.7 µM.

For `CC1(C)N=C(N)N=C(N)N1c1ccc(F)c(C(F)(F)F)c1`, the GI50 was 1.47 µM and the TGI is greater than 100 µM.

On to `CCC[C@H](N[C@@H]1CCc2cc(F)cc(F)c2C1)C(=O)Nc1cn(C(C)(C)CNCC(C)(C)C)cn1`, for which the GI50 was 3.48 µM and the TGI was 29.7 µM.

For `COc1ccc2[nH]cc(-c3nc(-c4cn(C)c5ccncc45)cs3)c2c1`, the GI50 was 1.97 µM and the TGI was 3.77 µM.

Regarding `C(=C1c2ccccc2-c2ccccc21)c1ccccn1`, the GI50 is 2.64 µM and the TGI came to 14.7 µM.

Turning to `CS(=O)(=O)CCNCc1ccc(-c2ccc3ncnc(Nc4ccc(OCc5cccc(C(F)(F)F)c5)cc4)c3c2)o1`, the GI50 is 3.39 µM and the TGI was 8.6 µM.

For the compound `CCC(Sc1nnc2c3ccccc3n(CC)c2n1)C(=O)Nc1ccccc1OC` (stereo unspecified), the GI50 is 1.37 µM and the TGI came out at 4.23 µM.

`Cn1c(COC(=O)N2CCCCC2)nc2c(N3CCOCC3)nc(-c3ccccc3)nc21`: the GI50 is 0.656 µM and the TGI was determined as 2.19 µM.

Regarding `CN1CCN(c2ccc3nc(-c4cc(C(C)(C)C)c(O)c(C(C)(C)C)c4)[nH]c3c2)CC1`, the GI50 was 1.92 µM and the TGI stood at 3.76 µM.

As to `COc1cc(CSc2nc3ccc(C)cc3c(=O)n2Cc2ccccc2)cc(OC)c1OC`, the GI50 was 0.479 µM and the TGI was 3.01 µM.

With `Cn1c(=O)cc2c3c(c(NCCCO)ccc31)C(=O)c1ccccc1-2`, the GI50 was 2.11 µM and the TGI stood at 9.66 µM.

As for `O=C(Nc1cc(C(F)(F)F)cc(C(F)(F)F)c1)Nc1ccc2oc(=O)ccc2c1`, the GI50 was 0.641 µM and the TGI worked out at 4.41 µM.

Turning to `CCCCCCCCCCCCCCCc1cc(O)ccc1N`, the GI50 is 2.04 µM and the TGI turned out to be 6.3 µM.
